Values quoted from earlier work in patent US20220162327A1, “ANTI-CCR5 AGENTS AND METHODS OF TREATMENT THAT BLOCK CANCER METASTASIS OR ENHANCE CELL DEATH INDUCED BY DNA DAMAGING CHEMOTHERAPY” (CytoDyn Inc., priority 2019, published 2022).

Tests used:
[1] = target: T1, CCR5 (Homo sapiens, UniProt P51681); set-up: endogenous in cells; host or cells: CD4+ T cells; settings: cited from earlier work
[2] = target: T1, CCR5; settings: activated human T cells, cited from earlier work
[3] = system: breast cancer tumor model; settings: cited from earlier work
[4] = system: CCL5; settings: human colorectal cancer liver metastasis; cited from earlier work

T1 sequence (P51681 whole entry): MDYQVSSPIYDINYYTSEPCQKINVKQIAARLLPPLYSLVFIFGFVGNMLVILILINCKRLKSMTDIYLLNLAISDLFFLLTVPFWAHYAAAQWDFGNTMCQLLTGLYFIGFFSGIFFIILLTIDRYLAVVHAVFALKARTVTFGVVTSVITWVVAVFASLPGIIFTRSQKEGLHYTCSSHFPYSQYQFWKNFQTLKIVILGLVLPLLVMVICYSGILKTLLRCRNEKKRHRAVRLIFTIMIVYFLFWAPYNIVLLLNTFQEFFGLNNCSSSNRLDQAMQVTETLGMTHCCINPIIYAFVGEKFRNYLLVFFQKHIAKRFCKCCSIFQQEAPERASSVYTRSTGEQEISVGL

## COC[C@@H](c1ccc(C(F)(F)F)cc1)N1CCN(C2(C)CCN(C(=O)c3c(C)ncnc3C)CC2)C[C@@H]1C [vicriviroc]
[1]
  cell killing mediated by DNA-damaging chemotherapeutic agents: dramatically enhanced cell killing

## maraviroc
[2]; high doses
  production of TNF-α and IFN-γ: tends to decrease production of TNF-α and IFN-γ
[2]
  CCR5 and CCR2 internalization induced by CCL5 and CCL2: can block CCR5 and CCR2 internalization processes induced by CCL5 and CCL2
  T cell chemotactic activities toward cognate ligands: inhibit T cell chemotactic activities
[1]
  cell killing mediated by DNA-damaging chemotherapeutic agents: dramatically enhanced cell killing
[3]
  lung metastases: effectively blocked lung metastases
[4]
  effect on tumor-associated macrophages and tumor cells: led to repolarization of tumor-associated macrophages and tumor cell death
